The assay concerns the target LANCL2 (Homo sapiens (Human), UniProt Q9NS86). In words: SPR (BIACORE S200) kinetic determination of LANCL2-small molecule interactions. The class given is binding. The settings on record: for Kd: immobilized LANCL2, 1:1 binding model, pH 6.5, 25° C.; for Rmax (RU): maximum binding force. The procedure:
1.1 Reagent Materials • Ligand: LANCL2 • Running buffer: 20 mM MES, 150 mM NaCl, 0.05% P20, pH 6.5, 1% DMSO
Injection conditions for small molecule compounds: a flow rate of 30 μL/min, a binding time of 60 s, a dissociation time of 300 s.
Running buffer: 20 mM MES, 150 mM NaCl, 0.05% P20, pH 6.5, 1% DMSO.
Sample chamber temperature: 25° C.; analysis temperature: 25° C.
Kinetic determination of LANCL2-small molecule interactions was performed. The kinetic parameters of small molecules BT-11 and L-1 to 60 (analytes) binding to LANCL2 (ligand) were determined using BIACORE S200. Data were generated in triplicate in a dose-dependent manner (5-8 titration points) and analyzed to determine binding models (Langmuir, conformational shifts, etc.), real-time association and dissociation constants, and equilibrium dissociation constants. SPR technology allows the validation of specific LANCL2-phytochemical interactions as well as an increased insight into the gold standard of binding mechanisms and rates. Experiments were performed on carboxymethyl polydextrose (CM5) sensor chips by amine-coupled covalent attachment of LANCL2. Data were analyzed with BIACORE S200T200 evaluation software (version 1), so as to determine affinity binding constants (KD) using a 1:1 binding model.
An optical technique for detecting molecular interactions, SPR, was used to measure the binding affinity between LANCL2 and a ligand thereof (compound to be tested). Purified recombinant LANCL2 protein was immobilized on a BIACORE sensor chip and small molecules were injected onto the protein surface using an equipment of microfluidic system. The change in total mass on the chip surface, corresponding to a small binding to the protein, was measured. […] The equilibrium dissociation constant (Kd) was often used to describe the affinity between a ligand and a protein, such as affinity degree of a ligand binding to a specific protein. Ligand-protein affinity was affected by non-covalent intermolecular interactions between two molecules, such as hydrogen bonding, electrostatic interactions, hydrophobic bonds and van der Waals forces. The steady-state affinity (Kd) for each interaction could be measured by plotting equilibrium binding levels against compound concentrations.

Sequence of LANCL2 (Q9NS86 whole entry, species assumed): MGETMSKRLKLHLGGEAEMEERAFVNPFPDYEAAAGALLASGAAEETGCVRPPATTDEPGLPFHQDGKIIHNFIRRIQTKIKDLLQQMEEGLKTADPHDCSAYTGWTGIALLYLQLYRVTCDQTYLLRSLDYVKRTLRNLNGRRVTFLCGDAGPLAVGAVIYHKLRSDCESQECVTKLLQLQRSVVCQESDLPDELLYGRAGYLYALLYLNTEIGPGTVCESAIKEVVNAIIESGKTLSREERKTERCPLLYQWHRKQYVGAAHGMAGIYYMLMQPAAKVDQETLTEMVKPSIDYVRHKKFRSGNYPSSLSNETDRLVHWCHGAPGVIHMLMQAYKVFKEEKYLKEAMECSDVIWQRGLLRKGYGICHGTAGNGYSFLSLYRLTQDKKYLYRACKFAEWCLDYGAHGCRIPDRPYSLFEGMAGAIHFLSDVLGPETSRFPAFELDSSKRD

What is called Kd is the concentration at which binding is half-saturated. As to `O=C(c1cccc(-c2nc3ccccc3[nH]2)n1)N1CCC2(CC1)CCN(C(=O)c1ccnc(Nc3ccccc3)n1)C2` [Embodiment L-62, (8-(6-(1H-benzo[d]imidazol-2-yl)picolinoyl)-2,8-diazaspiro[4.5]dec-2-yl)(2-(phenylamino)pyrimidin-4-yl)methanone], the Kd amounted to 29.3 µM and the “Rmax (RU)” value is on record as 5.7 RU.

For `O=C(c1cccc(-c2nc3ccccc3[nH]2)n1)N1CCC2(CCN(C(=O)c3nccc(Nc4ccccc4)n3)C2)C1` [Embodiment L-66, (7-(6-(1H-benzo[d]imidazol-2-yl)picolinoyl)-2,7-diazaspiro[4.4]non-2-yl)(4-(phenylamino)pyrimidin-2-yl)methanone], the Kd was 31.8 µM and the “Rmax (RU)” value is given as 7.2 RU.

For the compound `O=C(c1cnc2ccccc2c1)N1CC2CN(C(=O)c3cccc(-c4nc5ccccc5[nH]4)n3)CC2C1` [Embodiment L-122, (5-(6-(1Hbenzo[d]imidazol-2-yl)picolinoyl)hexahydropyrrolo[3,4-c]pyrrol-2(1H)-yl)(quinolin-3-yl)methanone], the Kd is 10.3 µM and the “Rmax (RU)” value came out at 7 RU.

As for `O=C(c1ccc(-c2ccccc2)cc1)N1CC2CN(C(=O)c3cccc(-c4nc5ccccc5[nH]4)n3)CC2C1` [Embodiment L-127, (5-(6-(1Hbenzo[d]imidazol-2-yl)picolinoyl)hexahydropyrrolo[3,4-c]pyrrol-2(1H)-yl)([1,1′-biphenyl]-4-yl)methanone], binding was characterised by a dissociation constant (Kd) of 9.38 µM and the “Rmax (RU)” value amounted to 5.1 RU.

On to `O=C(c1cccc(Nc2ccccc2)n1)N1CCC2(CC1)CCN(C(=O)c1ccnc(Nc3ccccc3)n1)CC2` [Embodiment L-80, (9-(6-(phenylamino)picolinoyl)-3,9-diazaspiro[5.5]undecan-3-yl)(2-(phenylamino)pyrimidin-4-yl)methanone], for which binding was characterised by a dissociation constant (Kd) of 28.4 µM and the “Rmax (RU)” value is 8.5 RU.

As for `O=C(NC1C2CN(C(=O)c3cccc(-c4nc5ccccc5s4)c3)CC21)c1cccc(-c2nc3ccccc3[nH]2)n1` [Embodiment L-77, 6-(1H-benzo[d]imidazol-2-yl)-N-(3-(3-(benzo[d]thiazol-2-yl)benzoyl)-3-azabicyclo[3.1.0]hexane-6-yl)picolinamide], the “binding activity compared with positive reference compound BT-11” value is “better binding activities than the positive reference compound BT-11”, binding was put at a Kd of 1.9 µM and the “Rmax (RU)” value is recorded as 7.3 RU.

Take `O=C(N[C@H]1[C@@H]2CN(C(=O)c3sccc3-n3cccc3)C[C@@H]21)c1cccc(-c2cn3ccccc3n2)c1` [Embodiment L-104, N-((1R,5S,6s)-3-(3-(1H-pyrrol-1-yl)thiophene-2-carbonyl)-3-azabicyclo[3.1.0]hexan-6-yl)-3-(imidazo[1,2-a]pyridin-2-yl)benzamide]: the Kd stood at 12.5 µM and the “Rmax (RU)” value amounted to 9.7 RU.

For `O=C(c1ccnc(Nc2ccccn2)c1)N1CC2CN(C(=O)c3cccc(-c4cn5ccccc5n4)n3)CC2C1` [Embodiment L-54, (5-(6-(imidazo[1,2-a]pyridin-2-yl]picolinoyl)hexahydropyrrolo[3,4-c]pyrrol-2(1H)-yl)(2-(pyridin-2-ylamino)pyridin-4-yl)methanone], the Kd was 27.8 µM and the “Rmax (RU)” value was determined as 8.4 RU.

Regarding `O=C(NC1CCN(C(=O)c2cccc(-c3nc4ccccc4[nH]3)n2)CC1)c1ccnc(Nc2ccccn2)n1` [Embodiment L-21], the Kd came to 9.88 µM and the “Rmax (RU)” value is 7.3 RU.

For `O=C(c1cccc(Nc2ccccc2)n1)N1CCC2(CCN(C(=O)c3cccc(-c4nc5ccccc5[nH]4)n3)C2)C1` [Embodiment L-65, (7-(6-(1H-benzo[d]imidazol-2-yl)picolinoyl)-2,7-diazaspiro[4.4]non-2-yl)(6-(phenylamino)pyridin-2-yl)methanone], the Kd was 26 µM and the “Rmax (RU)” value is recorded as 6.5 RU.

Take `Cc1[nH]c2ccccc2c1C(=O)N1CC2CN(C(=O)c3cccc(-c4nc5ccccc5[nH]4)n3)CC2C1` [Embodiment L-71, (5-(6-(1H-benzo[d]imidazol-2-yl)picolinoyl)hexahydropyrrolo[3,4-c]pyrrol-2(1H)-yl)(2-methyl-1H-indol-3-yl)methanone]: the affinity, expressed as Kd, was 40.6 µM and the “Rmax (RU)” value is reported as 5.9 RU.

For the compound `O=C(NC1C2CN(C(=O)c3cccc(-c4nc5ccccc5[nH]4)n3)CC21)c1cccc(Nc2ccccn2)n1` [Embodiment L-52, N-(3-(6-(1H-benzo[d]imidazol-2-yl)picolinoyl)-3-azabicyclo[3.1.0]hexan-6-yl)-6-(pyridin-2-ylamino)picolinamide], the “binding activity compared with positive reference compound BT-11” value is “better binding activities than the positive reference compound BT-11”, the Kd came to 2.83 µM and the “Rmax (RU)” value is 3.9 RU.

In the case of `Cc1ccc2cc(C(=O)N3CC4CN(C(=O)c5cccc(-c6nc7ccccc7[nH]6)n5)CC4C3)ccc2n1` [Embodiment L-125, (5-(6-(1Hbenzo[d]imidazol-2-yl)picolinoyl)hexahydropyrrolo[3,4-c]pyrrol-2(1H)-yl)(2-methylquinolin-6-yl)methanone], the Kd stood at 23.5 µM and the “Rmax (RU)” value is 5.2 RU.

Regarding `O=C(c1ccnc(Nc2ccccc2)n1)N1CCC2(CC1)CCN(C(=O)c1ccnc(Nc3ccccc3)n1)CC2` [Embodiment L-78, (3,9-diazaspiro[5.5]undecane-3,9-diyl)bis((2-(phenylamino)pyrimidin-4-yl)methanone)], the Kd turned out to be 81.5 µM and the “Rmax (RU)” value worked out at 14.4 RU.

Consider `Cc1ccncc1C(=O)N1CC2CN(C(=O)c3cccc(-c4nc5ccccc5[nH]4)n3)CC2C1` [Embodiment L-123, (5-(6-(1Hbenzo[d]imidazol-2-yl)picolinoyl)hexahydropyrrolo[3,4-c]pyrrol-2(1H)-yl)(4-methylpyridin-3-yl)methanone], for which the Kd was determined as 18.3 µM and the “Rmax (RU)” value was found to be 3.9 RU.

Consider `O=C(c1cccc(-c2nc3ccccc3[nH]2)n1)N1CCC2(CC1)CCN(C(=O)c1cccc(-c3nc4ccccc4[nH]3)n1)CC2` [Embodiment L-9, (3,9-diazaspiro[5.5]undecane-3,9-diyl)bis((6-(1H-benzo[d]imidazol-2-yl)pyridin-2-yl)methanone)], for which the “binding activity compared with positive reference compound BT-11” value was “better binding activities than the positive reference compound BT-11”, the Kd came out at 3.44 µM and the “Rmax (RU)” value worked out at 3.9 RU.

In the case of `O=C(c1cccc(Nc2ccccc2)n1)N1CCCC2(CCN(C(=O)c3cccc(-c4nc5ccccc5[nH]4)n3)CC2)C1` [Embodiment L-63, (9-(6-(1H-benzo[d]imidazol-2-yl)picolinoyl)-2,9-diazaspiro[5.5]undecan-2-yl)(6-(phenylamino)pyridin-2-yl)methanone], binding was put at a Kd of 53.5 µM and the “Rmax (RU)” value is on record as 7.6 RU.

`O=C(Nc1ccccc1NC(=O)c1ccnc(N2CCOCC2)n1)c1ccnc(N2CCOCC2)n1` [Embodiment L-13, N,N′-(1,2-phenylene)bis(2-morpholinopyrimidine-4-carboxamide)]: the Kd is 38.3 µM and the “Rmax (RU)” value came to 1.5 RU.

Take `O=C(c1ccnc(Nc2ccccc2)n1)N1CC2CN(C(=O)c3ccnc(Nc4ccccc4)n3)CC2C1` [Embodiment L-83]: binding was characterised by a dissociation constant (Kd) of 53.7 µM and the “Rmax (RU)” value stood at 9.6 RU.

As for `O=C(c1cccc(-c2nc3ccccc3[nH]2)n1)N1CCC2(CCCN(C(=O)c3ccnc(Nc4ccccc4)n3)C2)CC1` [Embodiment L-64, (9-(6-(1H-benzo[d]imidazol-2-yl)picolinoyl)-2,9-diazaspiro[5.5]undecan-2-yl)(2-(phenylamino)pyrimidin-4-yl)methanone], the Kd is 48.8 µM and the “Rmax (RU)” value came out at 6.1 RU.

Regarding `O=C(c1cccc(-c2nc3ccccc3[nH]2)n1)N1CC2CN(C(=O)c3ccnc(Nc4ccc(F)cc4)n3)CC2C1` [Embodiment L-82], the Kd came to 42.3 µM and the “Rmax (RU)” value is given as 9.4 RU.

Consider `O=C(Nc1cccc(-c2cn3ccccc3n2)c1)Nc1cccc(-c2cn3ccccc3n2)c1` [Embodiment L-119, 1,3-Bis(3-(imidazo[1,2-a]pyridin-2-yl)phenyl)urea], for which binding was put at a Kd of 6.78 µM and the “Rmax (RU)” value was 10.8 RU.

With `O=C(NC1CCN(C(=O)c2ccnc(Nc3ccccc3)n2)CC1)c1ccnc(Nc2ccccc2)n1` [Embodiment L-79], the Kd was found to be 24.8 µM and the “Rmax (RU)” value was 13 RU.

`O=C(c1cccc(Nc2ccccc2)n1)N1CC2CN(C(=O)c3cccc(Nc4ccccc4)n3)CC2C1` [Embodiment L-100]: binding was put at a Kd of 38.5 µM and the “Rmax (RU)” value is given as 7.8 RU.

`O=C(c1cccc(-c2nc3ccccc3[nH]2)n1)N1CCN(C(=O)c2n[nH]c3ccccc23)CC1` [Embodiment L-110, (4-(6-(1H-benzo[d]imidazol-2-yl)picolinoyl)piperazin-1-yl)(1H-indazol-3-yl)methanone]: the Kd was 26.2 µM and the “Rmax (RU)” value is 15 RU.
